Assay results: patent US9657071B2, “IgE peptide vaccine” (NIPPON ZENYAKU KOGYO CO., LTD., priority 2012, dated 2017)

Experiments:
dog IgE = experiment: Subcutaneous administration test using rats: IgG antibody against dog IgE (ELISA); assay type: in vivo; settings: 50 μg three times, no adjuvant
Procedure: The dog IgE protein (Bethyl Laboratories, Inc.; P115), the mouse IgE protein (BD Biosciences, San Jose, Calif., USA), and the human IgE protein (Athens Research And Technology, Inc.; 16-16-090705-ML) were each prepared at 1 μg/mL, 500 ng/mL, 250 ng/mL, 125 ng/mL, 62.5 ng/mL, 31.2 ng/mL, 15.6 ng/mL, 7.8 ng/mL, 3.9 ng/mL, 1.95 ng/mL, and 0.97 ng/mL in an immobilization buffer (0.05 M carbonate buffer, pH 9.6), then added at a concentration of 100 μL/well to an ELISA plate, and left overnight at 4° C. The immobilization plate was washed once with PBS-T (0.05%). A blocking solution (4× Block Ace, Snow Brand Milk Products Co., Ltd.; UK-B80) was added thereto at a concentration of 200 μL/well. The plate was blocked by incubation at 37° C. for 1.5 hours. The serum was diluted 2000-fold with a diluent (PBS-T:Block Ace=9:1) and used. The serum of an unimmunized rat was similarly diluted and used as a negative control. […] Then, the measurement was performed using a plate reader (Bio-Rad Laboratories, Inc.; model 680) (dual: measurement: 450 nm, control: 570 nm).
This peptide was used in the immunization of rats without the use of an adjuvant, and antibody response to dog IgE was evaluated. […]
Blood was collected every 2 weeks from the administer start date. […] Serum was collected, and an IgG antibody against dog IgE was evaluated by ELISA (FIG. 16). […]

human IgE = experiment: Test using dog (Part 2): IgG antibody against human IgE (ELISA); assay type: in vivo; settings: healthy adult beagles 24 months old, s.c. 1 mg five times at 2-week intervals
Procedure: Human IgE (Athens Research And Technology, Inc.; IgE, human Myeloma Plasma) was prepared at 1 μg/mL in an immobilization buffer (0.05 M carbonate buffer, pH 9.6), then added at a concentration of 100 μL/well to an ELISA plate, and left overnight at 4° C. The immobilization plate was washed once with PBS-T (0.05%). A blocking solution (4× Block Ace, Snow Brand Milk Products Co., Ltd.; UK-B80) was added thereto at a concentration of 200 μL/well. The plate was blocked by incubation at 37° C. for 1.5 hours. The serum was diluted 1000-fold with a diluent (PBS-T:Block Ace=9:1) and used. The plate was reacted with the serum at 37° C. for 1.5 hours and washed three times with PBS-T (0.05%). An anti-dog IgG antibody (Sheep anti-Dog IgG HRP, Bethyl Laboratories, Inc.; A40-118P) was diluted 2000-fold with a diluent and added thereto as a secondary antibody at a concentration of 100 μL/well. After reaction at 37° C. for 1.5 hours, the plate was washed three times with PBS-T (0.05%). A substrate solution (citrate buffer supplemented with one TMBZ tablet (Sigma-Aldrich Corp.; T-3405) and further supplemented, immediately before use, with 2 μL of 30% H2O2) was added at a concentration of 100 μL/well to the plate and reacted therewith for 10 minutes. […] Then, the measurement was performed using a plate reader (Bio-Rad Laboratories, Inc.; model 680) (dual: measurement: 450 nm, control: 570 nm). […]

KKTSVSASQWYTKHHNNATT (listed as Mus musculus) [M4-7-11]
confirmed to elevate: level of the rat IgG antibody against dog IgE (dog IgE; intravenous) | level of the rat IgG antibody against dog IgE (dog IgE; subcutaneous) | level of the IgG antibody against IgE (human IgE)
